Entries after “also recorded” stand apart in the source; their conditions may differ. Marks after values point to notes of the source that are not given here.
Key:
[1] = tested on: SM preparations from the corpus gastric muscle; assay: Ex vivo bioelectrical activity of smooth muscle preparations, single sucrose gap method; parameters: species or system Wistar rats; conditions: 5 × 10^−5 M; for Amplitude of slow waves, Measured value / Amplitude of spike potentials, Measured value / Number of slow waves, Measured value / Number of spike potentials, Measured value: 10 min, n = 7, mean ± SEM
Description: Adult male Wistar rats weighing 280–300 g were used. Animals were housed in standard laboratory conditions (23 to 25 °C, 50–55% humidity, 12/12 h light/dark cycle), while food and water were provided ad libitum.
Circular SM preparations were dissected from the corpus gastric muscle (26–28 mm long and 0.8–0.9 mm wide; without mucosa). Two or three muscle strips were taken from the rat stomach. The number of SM preparations used for each data point is indicated by n. After dissection, the tissues must prevent loss of viability, so during the dissection, the tissues were systematically moistened with a solution (NaCl:KCl:CaCl2 in ratio 27.2:1.1:1) prepared at 4 °C.
The BEA of SM preparations was investigated by means of the single sucrose gap method with silver non-polarizable freshly chlorinated electrodes. The muscle strips were divided into 3 zones: two electrode sections were flushed with isotonic KCl solution and Krebs solution (pH 7.3), respectively, and separated by a sucrose layer of high electric resistance. Krebs contained the following (in mM): NaCl 120; KCl 5.9; CaCl2 2.5; MgCl2 1.2; NaH2PO4 1.2; NaHCO3 15.4; glucose 11.5. All the ingredients for this solution were of analytical grade and obtained from Merck (Darmstadt, Germany). Deionized water (18.2 mX/cm^2) was used thoroughly. The KCl solution is similar to the Krebs solution but with an equimolar substitution of NaCl with KCl. An isotonic sucrose solution, due to its very high specific resistance (about 10^6 Ω·cm), provides the best possible separation of the sucrose solution from the physiological solution in the “normal” pool, on the one hand, and the solution providing a zero value of the membrane potential in the pool with another recording electrode.
The inflow rate of each solution (Krebs, KCl, and isotonic sucrose solution) was controlled by a needle valve and continuously aerated with a mixture of 95% O2 and 5% CO2, and the temperature was maintained at 37 °C. A potential difference between the two end sections of the gap (control conditions) was achieved by means of silver non-polarizable, freshly chlorinated electrodes and after a 40-min period of adaptation and stabilization was accepted as the initial (control). The Krebs solution was changed several times during the adaptation period. The viability of the SM preparations was periodically tested by treatment with 1 × 10^−6 M ACh.
The membrane potential value was visualized by means of a Linseis recorder (Selb, Germany). A pair of measuring electrodes is located on both sides of the sucrose sections. The pH (pH 7.3; 37 °C) of the Krebs bathing solution was measured before each experiment by pH-meter HI5521 (Hanna Instruments Inc., Woonsocket, RI, USA). […]
The new substances were dissolved initially in dimethyl sulphoxide (DMSO) to prepare a 5 × 10^−2 M stock solution. Further dilutions were made in distilled deionized water and were applied by adding aliquots of their concentrated solutions to the tissue bath.

5-HT3 receptor = assay: Immunohistochemical analysis of 5-HT3 expression in gastric SM strips; parameters: species or system Wistar rats; key to 5-HT3 expression, 5-HT / 5-HT3 expression, Response to Compound: −: absent; +: low; ++: moderate; +++: strong; conditions: for 5-HT3 expression, Response to Compound: SM preparations incubated with the compound; for 5-HT3 expression in SM preparations: immunohistochemical staining after 1 h incubation, in words
Description: […] Then, each SM strip was fixed in 10% neutral buffer formalin for 24–48 h and submitted for standard processing with hematoxylin and eosin staining.
The SM fragments from a rat’s gastric wall were fixed in a 10% neutral formalin solution and embedded in paraffin. Paraffin sections of 5 μm thickness were subjected to hematoxylin and eosin (H-E) staining for histochemical analysis.
Sections of the SM fragments from the wall of a rat’s stomach with a thickness of 5 µm were deparaffinized, then subjected to antigenic detection of the epitopes with citrate buffer, and an endogenous peroxidase blockade was made with hydrogen […] 3%, a kit was used to block the endogenous biotin, and a reagent was used to block non-specific binding (Superblock, Scy Tek, Santa Cruz Biotech. Inc. Heidelberg, Germany) follows incubate for 24 h (at 4 °C) with monoclonal mouse anti-5-HT3, next incubated with a secondary antibody: biotinylated anti-rabbit for 10 min at room temperature. The reaction was visualized with 3,3′-diaminobenzidine tetrachloride and counterstained with Mayer’s hematoxylin.
A quantitative and statistical analysis of immunohistochemical reaction using the Olympus DP-Soft image system (version 4.1 for Windows) was carried out on a Microphot-SA (Nikon, Japan) microscope equipped with a Camedia-5050 Z digital camera (Olympus, Japan). The analysis was performed on sections from the SM strips from the stomach of Wistar rats (n = 6 for each group). Five sections of the SM strips were measured, and the percentage of cells expressing 5-HT3 in the circular and longitudinal layer of SM cells, as well as in the myenteric plexus of the stomach, was determined. Each antibody was analyzed for five fields, in each of them the average number of cells with positive unit area response at ×200 magnification.

Row | Structure (SMILES) | Amplitude of slow waves, Measured value [1] | Amplitude of spike potentials, Measured value [1] | Number of slow waves, Measured value [1] | Number of spike potentials, Measured value [1] | Changes in the membrane potential ([1]; base activity taken as 100%, ↑ depolarization, ↓ hyperpolarization) | 5-HT3 expression, Response to Compound (5-HT3 receptor) | 5-HT3 expression in SM preparations (5-HT3 receptor) | effect on bioelectrical activity (slow waves, spike potentials) ([1]; in words)
1 | CC(C)C(N)Cc1ccccc1 (centres unmarked) [Compound 3, 3-Methyl-1-phenylbutan-2-amine] | 5.28 ± 0.33 mV | 2.61 ± 0.16 mV | 4.90 ± 0.09 min⁻¹ | 48.22 ± 0.39 * min^−1 | 55% | +++ | higher number of 5-HT3R positive cells per section; also recorded: increased intensity in 5-HT3 expression | 
2 | CC(=O)NC(Cc1ccccc1)C(C)C (centres unmarked) [Compound 4a, N-(3-methyl-1-phenylbutan-2-yl)acetamide] | 4.32 ± 0.38 mV | 0 * mV | 4.72 ± 0.55 min⁻¹ | 0 * min^−1 |  | − | no modulation on the 5-HT3R expression; also recorded: no 5-HT3 expression observed | complete disappearance of the spike potentials

From paper PMC9953468, “In Silico, In Vitro, and Ex Vivo Biological Activity of Some Novel Mebeverine Precursors” (Biomedicines, 2023)
